Results reported in US8501786B2, “Hydroxymethyl pyrrolidines as beta 3 adrenergic receptor agonists” (Merck Sharp & Dohme Corp., priority 2009, dated 2013).
Counter-ions that a name gives are not always drawn.

What follows are compounds tested against T1, human β3 adrenergic receptor (Homo sapiens, UniProt P13945) (assay: Functional assay: cAMP production (LANCE TR-FRET) in CHO cells stably transfected with cloned β3 adrenergic receptor). Details: Table 2; cAMP production, CHO cells expressing human β3 AR; read-out: Human β3 functional.
T1 construct: stably transfected with the cloned β-adrenergic receptor (β1, β2 or β3); expressed in transfected cells; host or cells: Chinese hamster ovary (CHO) cells, stably transfected
T1 sequence (P13945 whole entry): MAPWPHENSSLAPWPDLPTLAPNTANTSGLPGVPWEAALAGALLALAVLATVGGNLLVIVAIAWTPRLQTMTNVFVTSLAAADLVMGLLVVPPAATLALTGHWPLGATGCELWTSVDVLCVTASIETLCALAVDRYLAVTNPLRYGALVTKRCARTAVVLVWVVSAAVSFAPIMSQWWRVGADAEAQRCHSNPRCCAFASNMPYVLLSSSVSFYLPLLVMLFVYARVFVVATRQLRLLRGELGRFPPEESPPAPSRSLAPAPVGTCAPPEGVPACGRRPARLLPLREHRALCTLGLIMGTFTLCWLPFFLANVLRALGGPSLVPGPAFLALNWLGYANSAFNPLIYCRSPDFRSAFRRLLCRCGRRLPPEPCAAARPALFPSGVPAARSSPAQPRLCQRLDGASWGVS
Type: cell-based
Method: Functional Assay: cAMP production in response to ligand is measured according to Barton, et al. (1991, Agonist-induced desensitization of D2 dopamine receptors in human Y-79 retinoblastoma cells. Mol. Pharmacal. v3229:650-658) modified as follows, cAMP production is measured using a homogenous time-resolved fluorescence resonance energy transfer immunoassay (LANCE™, Perkin Elmer) according to the manufacture's instructions. Chinese hamster ovary (CHO) cells, stably transfected with the cloned β-adrenergic receptor (β1, β2 or β3) are harvested after 3 days of subculturing. Harvesting of cells is done with Enzyme-free Dissociation Media (Specialty Media). Cells are then counted and resuspended in assay buffer (Hank's Balanced salt solution supplemented with 5 mM HEPES, […]) containing a phosphodiesterase inhibitor (IBMX, 0.6 mM). The reaction is initiated by mixing 6,000 cells in 6 μL with 6 μL Alexa Fluor labeled cAMP antibody (LANCE™ kit) which is then added to an assay well containing 12 μL of compound (diluted in assay buffer to 2× final concentration). The reaction proceeds for 30 min at room temperature and is terminated by the addition of 24 ul detection buffer (LANCE™ kit). The assay plate is then incubated for 1 h at room temperature and time-resolved fluorescence measured on a Perkin Elmer Envision reader or equivalent. The unknown cAMP level is determined by comparing fluorescence levels to a cAMP standard curve.
The non-selective, full agonist β-adrenergic ligand isoproterenol is used at all three receptors to determine maximal stimulation. The human β3 adrenergic receptor (AR) selective ligand (S)-N-[4-[2-[[2-hydroxy-3-(4-hydroxyphenoxy)propyl]amino]ethyl]-phenyl]-4-iodobenzenesulfonamide is used as a control in all assays. Isoproterenol is titrated at a final concentration in the assay of 10^-10 M to 10-5 and the selective ligand (S)-N-[4-[2-[[2-hydroxy-3-(4-hydroxyphenoxy)propyl]amino]ethyl]phenyl]-4-iodobenzenesulfonamide is titrated at the β3 receptor at concentration of 10^-10 M to 10^-5 M. Unknown ligands are titrated at all 3 β-adrenergic receptor subtypes at a final concentration in the assay of 10^-10 M to 10^-5 M to determine the EC50. The EC50 is defined as the concentration of compound that gives 50% activation of its own maximum. Data are analyzed using Microsoft Excel and Graphpad Prism or an internally developed data analysis software package.

Row | EC50 | Structure (SMILES)
1 | 1 to 10 nM | O=C(Cn1nc(Cc2ccccc2)c2ccccc2c1=O)Nc1ccc(CC2CC[C@H]([C@H](O)c3cccnc3)N2)cc1 (stereo partly drawn) [Example 8]
2 | 101 to 1000 nM | CNc1ncncc1CC(=O)Nc1ccc(CC2CC[C@H]([C@H](O)c3cccnc3)N2)cc1 (stereo partly drawn) [Example 50]
3 | 11 to 100 nM | O=C(Cn1cncn1)Nc1ccc(CC2CC[C@H]([C@H](O)c3cccnc3)N2)cc1 (stereo partly drawn) [Example 38]
4 | 101 to 1000 nM | CN1CCCN(CC(=O)Nc2ccc(CC3CC[C@H]([C@H](O)c4cccnc4)N3)cc2)C1=O (stereo partly drawn) [Example 87]
5 | 1 to 10 nM | O=C(Cn1c(=O)[nH]c(=O)c2ccccc21)Nc1ccc(CC2CC[C@H]([C@H](O)c3cccnc3)N2)cc1 (stereo partly drawn) [Example 57]
6 | 11 to 100 nM | O=C(Cc1nnc(Cc2ccccc2)[nH]1)Nc1ccc(CC2CC[C@H]([C@H](O)c3cccnc3)N2)cc1 (stereo partly drawn) [Example 26]
7 | 11 to 100 nM | O=C(Nc1ccc(CC2CC[C@H]([C@H](O)c3cccnc3)N2)cc1)c1ccccc1-n1nccn1 (stereo partly drawn) [Example 35]
8 | 11 to 100 nM | Cc1nc(CC(=O)Nc2ccc(CC3CC[C@H]([C@H](O)c4cccnc4)N3)cc2)cs1 (stereo partly drawn) [Example 15]
9 | 1 to 10 nM | O=C(Cn1cccnc1=O)Nc1ccc(CC2CC[C@H]([C@H](O)c3cccnc3)N2)cc1 (stereo partly drawn) [Example 60]
10 | 11 to 100 nM | O=C(Cn1c(-c2ccccc2)nc2ccccc21)Nc1ccc(CC2CC[C@H]([C@H](O)c3cccnc3)N2)cc1 (stereo partly drawn) [Example 18]
11 | 1 to 10 nM | COc1cccc(N2CCC[C@H]2C(=O)Nc2ccc(CC3CC[C@H]([C@H](O)c4cccnc4)N3)cc2)c1 (stereo partly drawn) [Example 31]
12 | 11 to 100 nM | Cc1cn(CC(=O)Nc2ccc(CC3CC[C@H]([C@H](O)c4cccnc4)N3)cc2)c(=O)[nH]c1=O (stereo partly drawn) [Example 62]
13 | 1 to 10 nM | O=C(Cn1c(=O)[nH]c2ccccc2c1=O)Nc1ccc(CC2CC[C@H]([C@H](O)c3cccnc3)N2)cc1 (stereo partly drawn) [Example 65]
14 | 11 to 100 nM | COc1ncncc1CC(=O)Nc1ccc(CC2CC[C@H]([C@H](O)c3cccnc3)N2)cc1 (stereo partly drawn) [Example 48]
15 | 11 to 100 nM | O=C(Cc1cccc(F)c1F)Nc1ccc(CC2CC[C@H]([C@H](O)c3cccnc3)N2)cc1 (stereo partly drawn) [Example 79]
16 | 11 to 100 nM | O=C(Cn1[nH]c(=O)c2ccccc2c1=O)Nc1ccc(CC2CC[C@H]([C@H](O)c3cccnc3)N2)cc1 (stereo partly drawn) [Example 67]
17 | 1 to 10 nM | O=C(Cc1csc(-c2cccnc2)n1)Nc1ccc(CC2CC[C@H]([C@H](O)c3cccnc3)N2)cc1 (stereo partly drawn) [Example 82]
18 | 11 to 100 nM | O=C(Cc1ncccn1)Nc1ccc(CC2CC[C@H]([C@H](O)c3cccnc3)N2)cc1 (stereo partly drawn) [Example 22]
19 | 11 to 100 nM | O=C(Cc1nc2ccccc2[nH]1)Nc1ccc(CC2CC[C@H]([C@H](O)c3cccnc3)N2)cc1 (stereo partly drawn) [Example 17]

Same assay, conditions: Table 3; cAMP production, CHO cells expressing human β3 AR; read-out: Human β3 functional

Row | EC50 | Structure (SMILES)
20 | 1 to 10 nM | COC(=O)c1cn(C(C)C(=O)Nc2ccc(CC3CC[C@H]([C@H](O)c4cccnc4)N3)cc2)nn1 (single isomer, unassigned) [Example 150]
21 | < 1 nM | O=C(Nc1ccc(CC2CC[C@H]([C@H](O)c3cccnc3)N2)cc1)C1CCc2sc(Cl)nc21 (single isomer, unassigned) [Example 186]
22 | 1 to 10 nM | CC(C(=O)Nc1ccc(C[C@@H]2CC[C@H]([C@H](O)c3cccnc3)N2)cc1)n1ncccc1=O (single isomer, unassigned) [Example 163]
23 | 1 to 10 nM | Cc1noc2c1CCC2C(=O)Nc1ccc(CC2CC[C@H]([C@H](O)c3cccnc3)N2)cc1 (single isomer, unassigned) [Example 168]
24 | 1 to 10 nM | Cc1nnc(C(C)C(=O)Nc2ccc(CC3CC[C@H]([C@H](O)c4cccnc4)N3)cc2)[nH]1 (single isomer, unassigned) [Example 152]
25 | 1 to 10 nM | O=C(Cc1nc2c(s1)CCC2C(=O)Nc1ccc(CC2CC[C@H]([C@H](O)c3cccnc3)N2)cc1)NCc1ccccc1 (single isomer, unassigned) [Example 136]
26 | 1 to 10 nM | O=C(Nc1ccc(CC2CC[C@H]([C@H](O)c3cccnc3)N2)cc1)[C@H]1CCc2nnnn21 (stereo partly drawn) [Example 173]
27 | 101 to 1000 nM | Cc1nc2c(s1)CCCC2C(=O)Nc1ccc(CC2CC[C@H]([C@H](O)c3cccnc3)N2)cc1 (single isomer, unassigned) [Example 132]
28 | 101 to 1000 nM | Cc1nc(C(C)C(=O)Nc2ccc(CC3CC[C@H]([C@H](O)c4cccnc4)N3)cc2)cs1 (single isomer, unassigned) [Example 102]
29 | 101 to 1000 nM | CC(C(=O)Nc1ccc(CC2CC[C@H]([C@H](O)c3cccnc3)N2)cc1)c1csc(C(F)(F)F)n1 (single isomer, unassigned) [Example 112]
30 | 1 to 10 nM | CC(C(=O)Nc1ccc(CC2CC[C@H]([C@H](O)c3cccnc3)N2)cc1)n1nccn1 (single isomer, unassigned) [Example 142]
31 | 11 to 100 nM | O=C(Nc1ccc(CC2CC[C@H]([C@H](O)c3cccnc3)N2)cc1)C1CCc2scnc21 (single isomer, unassigned) [Example 191]
32 | 101 to 1000 nM | Cc1cc(C(C)C(=O)Nc2ccc(CC3CC[C@H]([C@H](O)c4cccnc4)N3)cc2)[nH]n1 (single isomer, unassigned) [Example 177]
33 | 11 to 100 nM | CCCC(C(=O)Nc1ccc(CC2CC[C@H]([C@H](O)c3cccnc3)N2)cc1)c1csc(N)n1 (single isomer, unassigned) [Example 107]
34 | 11 to 100 nM | Cc1nc2c(s1)CCCC2C(=O)Nc1ccc(CC2CC[C@H]([C@H](O)c3cccnc3)N2)cc1 (single isomer, unassigned) [Example 133]
35 | 1 to 10 nM | O=C(Nc1ccc(CC2CC[C@H]([C@H](O)c3cccnc3)N2)cc1)C1CCc2nc3ccccc3c(=O)n21 (single isomer, unassigned) [Example 193]
36 | 1 to 10 nM | CC(C(=O)Nc1ccc(CC2CC[C@H]([C@H](O)c3cccnc3)N2)cc1)c1csc(N)n1 (single isomer, unassigned) [Example 105]
37 | 1 to 10 nM | CC(C(=O)Nc1ccc(CC2CC[C@H]([C@H](O)c3cccnc3)N2)cc1)n1cnccc1=O (single isomer, unassigned) [Example 165]
38 | 11 to 100 nM | Cc1nnc2n1CCC2C(=O)Nc1ccc(CC2CC[C@H]([C@H](O)c3cccnc3)N2)cc1 (single isomer, unassigned) [Example 170]

Same assay, conditions: Table 4; cAMP production, CHO cells expressing human β3 AR; read-out: Human β3 functional

Row | EC50 | Structure (SMILES)
39 | 101 to 1000 nM | O=S(=O)(Nc1ccc(CC2CC[C@H]([C@H](O)c3cccnc3)N2)cc1)c1cccc2cnccc12 (stereo partly drawn) [Example 230]
40 | 11 to 100 nM | O=S(=O)(Nc1ccc(CC2CC[C@H]([C@H](O)c3cccnc3)N2)cc1)c1ccc(-n2cccn2)cc1 (stereo partly drawn) [Example 227]

Same assay, conditions: Table 5; human β3 functional activity given as ranges; read-out: Human β3 functional

Row | EC50 | Structure (SMILES)
41 | 11 to 100 nM | O=C(Nc1ccc(CC2CC[C@H]([C@H](O)c3cccnc3)N2)cc1Br)C1CCc2sc(I)nc21 (single isomer, unassigned) [Example 244]
42 | 101 to 1000 nM | Nc1nc(CC(=O)Nc2ccc(CC3CC[C@H]([C@H](O)c4cccnc4)N3)cc2Br)cs1 (stereo partly drawn) [Example 242]

Same assay, conditions: Table 6; human β3 functional activity given as ranges; read-out: Human β3 functional

Row | EC50 | Structure (SMILES)
43 | 11 to 100 nM | CC(NS(=O)(=O)c1ccccc1)C(=O)Nc1ccc(C[C@@H]2CC[C@H]([C@H](O)c3cccnc3)N2)cc1 (stereo partly drawn) [Example 257]
44 | < 1 nM | CC(NC(=O)c1ccccc1)C(=O)Nc1ccc(C[C@@H]2CC[C@H]([C@H](O)c3cccnc3)N2)cc1 (stereo partly drawn) [Example 260]

Same assay, conditions: cAMP production, CHO cells expressing human β3 AR; read-out: human Beta-3 agonist functional activity

Row | EC50 | Structure (SMILES)
45 | < 100 nM | C[C@@H](C(=O)Nc1ccc(C[C@@H]2CC[C@H]([C@H](O)c3cccnc3)N2)cc1)c1ccccn1 (single isomer, unassigned) [Example 94, trifluoroacetic acid salt]
46 | < 1 nM | C[C@H](NC(=O)c1ccccc1F)C(=O)Nc1ccc(C[C@@H]2CC[C@H]([C@H](O)c3cccnc3)N2)cc1 [Example 245, 2-Fluoro-N-((1S)-2-{[4-({(2S,5R)-5-[(R)-hydroxy(pyridin-3-yl)methyl]pyrrolidin-2-yl}methyl)phenyl]amino}-1-methyl-2-oxoethyl)benzamide, trifluoracetic acid salt]
47 | < 10 nM | Nc1nc(CC(=O)Nc2ccc(C[C@@H]3CC[C@H]([C@H](O)c4cccnc4)N3)cc2)cs1 [Example 1, 2-2-Amino-1,3-thiazol-4-yl)-N-[4-({(2S,5R)-5-[(R)-hydroxy(pyridin-3-yl)methyl]pyrrolidin-2-yl}methyl)phenyl]acetamide, trfluoroacetic acid salt]
48 | < 10 nM | C[C@H](C(=O)Nc1ccc(C[C@@H]2CC[C@H]([C@H](O)c3cccnc3)N2)cc1)n1ccccc1=O (single isomer, unassigned) [Example 96, trifluoroacetic acid salt]
